Test results as given in patent US6440434B1, “Skin care composition” (Conopco, Inc., priority 1999, dated 2002).

System: acyl CoA retinol transferase (ARAT)
Experiment: in vitro Microsomal Assay of retinol esterification, ARAT catalyzed (retinyl palmitate)
Type: biochemical, bovine
Details: 10 μM test compound; solvent blank = 100% ester formation

% INHIBITION, ARAT	Molecule
19%	CCCCCCCCCCCCC/C=C/[C@@H](O)[C@H](CO)NC(C)=O [Acetyl Sphingosine]
20%	CC(C)=CCCC(C)=CCCC(C)=CCO [Farnesol]
38%	CC(C)=CCC/C(C)=C/CC/C(C)=C/CC/C(C)=C/CO [Geranyl Geraniol]

Same assay, conditions: 100 μM test compound; solvent blank = 100% ester formation

Molecule	% INHIBITION, ARAT
CCCCCCCCCCCCC/C=C/[C@@H](O)[C@H](CO)NC(C)=O [Acetyl Sphingosine]	62%
CCC(=O)/C=C/C1C(C)=CCCC1(C)C (stereo not drawn) [Alpha methyl ionone]	67%
CC1=CCC(CCC(C)CO)C1(C)C (stereo not shown) [Brahmanol]	70%
CC(=O)c1cc2c(cc1C)C(C)(C)C(C)CC2(C)C (stereo not shown) [Tonalid]	50%
O=CC=Cc1ccccc1 [cinnamaldehyde, reference compound]	0%
CC(=O)CCC1C(C)=CCCC1(C)C (stereo not drawn) [dihydro alpha ionone, reference compound]	13%
N[C@@H](Cc1c[nH]c2ccccc12)C(=O)O [tryptophan, reference compound]	0%

Continued, values first:

% INHIBITION, ARAT	Molecule
43%	CC(C)=CCCC(C)=CCCC(C)=CCO [Farnesol]
81%	CC(C)=CCC/C(C)=C/CC/C(C)=C/CC/C(C)=C/CO [Geranyl Geraniol]
80%	CC=CC(=O)C1CCC(C)(C)C=C1C (stereo not shown) [Isodamascone]
76%	CC(C)(O)CCCC1=CCC(C=O)CC1 (stereo not shown) [Lyral]
0%	Nc1ncnc2nc[nH]c12 [adenine, reference compound]
0%	CC12CCC(CC1=O)C2(C)C (stereo not shown) [camphor, reference compound]
0%	C=C(C)C1CC=C(C)C(=O)C1 (stereo not shown) [carvone, reference compound]
0%	O=C(NCO)N(CO)C1(CO)C(=O)NC(=O)N1CO (stereo not shown) [diazolidinyl urea, reference compound]
0%	CC12CCC(CC1)C(C)(C)O2 [eucalyptol, reference compound]
12%	CC12CCC(C1)C(C)(C)C2O (stereo not shown) [fenchyl alcohol, reference compound]
18%	CC1=CC(C)C(CO)C(C)C1 (stereo not shown) [isocyclogeraniol, reference compound]
0%	Cc1ncc(C[n+]2csc(CCO)c2C)c(N)n1 [thiamine, reference compound]
0%	Cc1ccc(C(C)C)c(O)c1 [thymol, reference compound]
0%	O=c1cc[nH]c(=O)[nH]1 [uracil, reference compound]
0%	COc1cc(C=O)ccc1O [vanillin, reference compound]
8%	Isobutyl ionone
23%	Sandalone
15%	Sandanol

Molecular target: T1, lecithin retinol acyl transferase (LRAT) (Bos taurus, UniProt Q9BGL2)
T1 sequence (Q9BGL2 1-230): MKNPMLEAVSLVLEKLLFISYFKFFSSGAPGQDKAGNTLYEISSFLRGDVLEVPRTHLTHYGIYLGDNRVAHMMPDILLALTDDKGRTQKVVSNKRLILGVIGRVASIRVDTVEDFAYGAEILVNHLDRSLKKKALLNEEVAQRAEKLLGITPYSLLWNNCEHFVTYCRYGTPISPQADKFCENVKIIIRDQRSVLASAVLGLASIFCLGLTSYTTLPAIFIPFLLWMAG
Experiment: in vitro Microsomal Assay of retinol esterification, LRAT catalyzed (retinyl laurate)
Type: biochemical, bovine
Details: 10 μM test compound; solvent blank = 100% ester formation

% INHIBITION, LRAT	Molecule
10%	CCCCCCCCCCCCC/C=C/[C@@H](O)[C@H](CO)NC(C)=O [Acetyl Sphingosine]
52%	C/C=C/C(=O)C1=C(C)CCCC1(C)C [Beta damascone]
29%	C/C=C/C(=O)C1=C(C)C=CCC1(C)C [Damascenone]
64%	C/C=C/C(=O)C1C(C)C=CCC1(C)C (stereo not shown) [Delta damascone]
11%	CCCCC/C=C\C/C=C\CCCCCCCC(=O)N(CCO)CCO [Linoleamide-DEA (LODEA), Linoleamide-DEA]

Same assay, conditions: 100 μM test compound; solvent blank = 100% ester formation

Molecule	% INHIBITION, LRAT
CCCCCCCCCCCCC/C=C/[C@@H](O)[C@H](CO)NC(C)=O [Acetyl Sphingosine]	50%
CCC(=O)/C=C/C1C(C)=CCCC1(C)C (stereo not drawn) [Alpha methyl ionone]	77%
C/C=C/C(=O)C1=C(C)CCCC1(C)C [Beta damascone]	92%
CC1=CCC(CCC(C)CO)C1(C)C (stereo not shown) [Brahmanol]	75%
C/C=C/C(=O)C1=C(C)C=CCC1(C)C [Damascenone]	79%
C/C=C/C(=O)C1C(C)C=CCC1(C)C (stereo not shown) [Delta damascone]	95%
CC(=O)CCC1C(C)=CCCC1(C)C (stereo not drawn) [dihydro alpha ionone, reference compound]	18%

Further lines, results first:

% INHIBITION, LRAT	Molecule
49%	CCOC(=O)C1=C(C)C=CCC1(C)C [Ethyl saffranate]
38%	CC(=O)/C(C)=C/C1C(C)=CCCC1(C)C (stereo not shown) [Gamma methyl ionone]
92%	CC=CC(=O)C1CCC(C)(C)C=C1C (stereo not shown) [Isodamascone]
51%	CCCCC/C=C\C/C=C\CCCCCCCC(=O)N(CCO)CCO [Linoleamide-DEA (LODEA), Linoleamide-DEA]
33%	CCCC(O)CCC1C(C)CCCC1(C)C (stereo not shown) [Timberol]
16%	CC1=CC(C)C(CO)C(C)C1 (stereo not shown) [isocyclogeraniol, reference compound]
45%	Isobutyl ionone
12%	Sandalone
43%	Sandanol

System: LRAT and ARAT catalyzed retinol esterification
Experiment: in vitro Microsomal Assay, retinol esterification overall (statements in words)
Type: biochemical, bovine
Details: not given

Molecule	retinol esterification inhibition (in words)
CCCCCCCCCCCCC/C=C/[C@@H](O)[C@H](CO)NC(C)=O [Acetyl Sphingosine]	potent retinol esterification inhibitors
CC(C)=CCCC(C)=CCCC(C)=CCO [Farnesol]	inhibit retinol esterification
CCCCC/C=C\C/C=C\CCCCCCCC(=O)N(CCO)CCO [Linoleamide-DEA (LODEA), Linoleamide-DEA]	potent retinol esterification inhibitors
CCCCC/C=C\C/C=C\CCCCCCCC(=O)NCCO [Linoleamide-MEA (LOMEA), Linoleamide-MEA]	potent retinol esterification inhibitors

Same assay, conditions: listed as Geranyl geraniol

Molecule	retinol esterification inhibition (in words)
CC(C)=CCC/C(C)=C/CC/C(C)=C/CC/C(C)=C/CO [Geranyl Geraniol]	substantially more potent esterification inhibitor, than farnesol

Same assay, conditions: listed as geranyl geraniol

Molecule	retinol esterification inhibition (in words)
CC(C)=CCC/C(C)=C/CC/C(C)=C/CC/C(C)=C/CO [Geranyl Geraniol]	inhibit retinol esterification

System: procollagen-I synthesis in human dermal fibroblasts
Experiment: Dot blot assay for procollagen-I in dermal fibroblast conditioned medium
Type: cell-based
Details: Table 6; 0.01 μM of each active, 24 hours; vehicle control = 100

Molecule	Procollagen-I
CCCCCCCCCCC/C=C\CCCCC(=O)O [PA, Petroselinic acid]	85.1%

Same assay, conditions: Table 7, PA/Retinol set; 0.01 μM of each active; control = 100%

Molecule	Procollagen 1
CCCCCCCCCCC/C=C\CCCCC(=O)O [PA, Petroselinic acid]	86.0%
CC1=C(/C=C/C(C)=C/C=C/C(C)=C/CO)C(C)(C)CCC1 [Retinol, reference compound]	95.0%

System: decorin synthesis in human dermal fibroblasts
Experiment: Dot blot assay for decorin in dermal fibroblast conditioned medium
Type: cell-based
Details: Table 6; 0.01 μM, 24 hours; vehicle control = 100

Molecule	Decorin
CCCCCCCCCCC/C=C\CCCCC(=O)O [PA, Petroselinic acid]	101.8%

Same assay, conditions: Table 6; 0.1 μg/ml, 24 hours; vehicle control = 100

Molecule	Decorin
CCCCC/C=C\C/C=C\CCCCCCCC(=O)NCCO [Linoleamide-MEA (LOMEA), Linoleamide-MEA]	133.9%

Same assay, conditions: Table 7, PA/Retinyl Linoleate set; 0.01 μM; control = 100%

Molecule	Decorin
CCCCCCCCCCC/C=C\CCCCC(=O)O [PA, Petroselinic acid]	107.5%

Same assay, conditions: Table 7, PA/Retinyl Linoleate set; 0.1 μM; control = 100%

Molecule	Decorin
CCCCC/C=C\C/C=C\CCCCCCCC(=O)OC/C=C(C)/C=C/C=C(C)/C=C/C1=C(C)CCCC1(C)C [Retinyl Linoleate]	109.1%

Same assay, conditions: Table 7, PA/trans Retinoic acid set; 0.01 μM of each active; control = 100%

Molecule	Decorin
CCCCCCCCCCC/C=C\CCCCC(=O)O [PA, Petroselinic acid]	100.5%
CC1=C(/C=C/C(C)=C/C=C/C(C)=C/C(=O)O)C(C)(C)CCC1 [trans Retinoic acid, reference compound]	102.8%
